Measurements published in patent US11325913B2, “Compounds and methods for the treatment of malaria” (THE BROAD INSTITUTE, INC., priority 2013, dated 2022).

System: P. falciparum Dd2
Assay: Activity against the Dd2 strain of P. falciparum (SYBR Green I, 72 h)
Type: cell-based
Details: P. falciparum Dd2, 72 h incubation
Method: The Dd2 strain of P. falciparum was cultured in complete medium (RPMI with L-glutamine, 4.3% heat-inactivated O-positive human serum, 2.08 mg/ml albumax, 0.013 mg/ml hypoxanthine, 1.17 mg/ml glucose, 0.18% NaHCO3, 0.031 M Hepes, 2.60 mM NaOH, and 0.043 mg/ml gentamicin) until the parasitemia reached 3-8%. Parasitemia was determined by checking at least 500 red blood cells from a Giemsa-stained blood smear. The Dd2 cultures along with tested O-positive red blood cells were centrifuged at room temperature at 2,000 rpm for 5 minutes using an Eppendorf centrifuge 5810R with an A-4-81 rotor. The medium was aspirated off. For the compound screening, a parasite dilution at a 1% parasitemia and 1.0% hematocrit was created with screening medium (RPMI with L-glutamine, 4.16 mg/ml albumax II, 0.013 mg/ml hypoxanthine, 1.73 mg/ml glucose, 0.18% NaHCO3, 0.031 M Hepes, 2.60 mM NaOH, and 0.043 mg/ml gentamicin). The suspension was gassed with 93% nitrogen, 4% carbon dioxide, and 3% oxygen and placed at 37° C. until needed. Using a liquid dispenser, 20 μl of screening medium was dispensed into 384-well, black, clear-bottom plates. With a PinTool, 100 nl of compounds dissolved in DMSO was transferred into the assay plates along with control compound (mefloquine). Next, 30 μl of the parasite suspension in screening medium was then dispensed into the assay plates such that the final parasitemia was 1% and the final hematocrit was 1.0%. Final concentration of DMSO was 0.125%. Mefloquine at a final concentration of 20 μM and DMSO at a final concentration of 0.125% were used within the assay plates to serve as background and baseline controls, respectively. The assay plates were transferred to incubators (93% nitrogen, 4% carbon dioxide, and 3% oxygen during the 72 h incubation at 37° C.). Ten microliters of detection reagent consisting of 10×SYBR Green I (Invitrogen; supplied in 10,000× concentration) in lysis buffer (20 mM Tris-HCl, 5 mM EDTA, 0.16% Saponin wt/vol, 1.6% Triton X vol/vol) was dispensed into the assay plates. For optimal staining, the assay plates were left at room temperature for 24 h in the dark. The assay plates were read by using an Envision (PerkinElmer) reader, with 505 dichroic mirrors with 485-nm excitation and 530-nm emission settings, and the plate reads were from the bottom.
By following the above-described protocol, the 50% effective concentration (EC50) for compounds 1-95 was measured against P. falciparum Dd2 and the results are shown in Table 2: […]

[1] = Plasmodium falciparum, DD2, 72 h

SMILES	EC50 [1]	EC50
COc1cccc(CN2CCCCN3[C@H](CO)[C@@H](c4ccc(C#Cc5cccnc5)cc4)[C@@H]3C2)c1 [Compound 1, ((8R,9S,10S)-6-(3-methoxybenzyl)-9-(4-(pyridin-3-ylethynyl)phenyl)-1,6-diazabicyclo[6.2.0]decan-10-yl)methanol]	0.427 µM	–
O=C(Nc1ccccc1)N1CCCCN2[C@H](CO)[C@H](c3ccc(C#Cc4cccnc4)cc3)[C@@H]2C1 [Compound 2, (8R,9R,10S)-10-(hydroxymethyl)-N-phenyl-9-(4-(pyridin-3-ylethynyl)phenyl)-1,6-diazabicyclo[6.2.0] decane-6-carboxamide]	0.165 µM	–
COc1ccccc1NC(=O)N1CCCCN2[C@H](CO)[C@H](c3ccc(C#Cc4ccccc4)cc3)[C@@H]2C1 [Compound 3, (8R,9R,10S)-10-(hydroxymethyl)-N-(2-methoxyphenyl)-9-(4-(phenylethynyl)phenyl)-1,6-diazabicyclo[6.2.0] decane-6-carboxamide]	0.118 µM	–
COc1ccc(NC(=O)N2CCCCN3[C@H](CO)[C@H](c4ccc(C#Cc5ccccn5)cc4)[C@@H]3C2)cc1 [Compound 4, (8R,9R,10S)-10-(hydroxymethyl)-N-(4-methoxyphenyl)-9-(4-(pyridin-2-ylethynyl)phenyl)-1,6-diazabicyclo[6.2.0] decane-6-carboxamide]	0.131 µM	–
O=S(=O)(c1ccc(F)cc1)N1CCCCN2[C@@H](CO)[C@@H](c3ccc(C4=CCCCC4)cc3)[C@@H]2C1 [Compound 5, ((8R,9S,10R)-6-((4-fluorophenyl)sulfonyl)-9-(2′,3′,4′,5′-tetrahydro-[1,1′-biphenyl]-4-yl)-1,6-diazabicyclo[6.2.0]decan-10-yl)methanol]	1.07 µM	–
O=C(Nc1ccccc1)N1CCCCN2[C@@H](CO)[C@H](c3ccc(C#Cc4cccnc4)cc3)[C@@H]2C1 [Compound 6, (8R,9R,10R)-10-(hydroxymethyl)-N-phenyl-9-(4-(pyridin-3-ylethynyl)phenyl)-1,6-diazabicyclo[6.2.0] decane-6-carboxamide]	0.552 µM	–
Cc1cccc(-c2ccc([C@H]3[C@H]4CN(S(=O)(=O)c5cccc(C)c5)CCCCN4[C@H]3CO)cc2)c1 [Compound 7, ((8S,9S,10R)-9-(3′-methyl-[1,1′-biphenyl]-4-yl)-6-(m-tolylsulfonyl)-1,6-diazabicyclo[6.2.0]decan-10-yl)methanol]	1.19 µM	–
COc1ccc(C#Cc2ccc([C@@H]3[C@@H](CO)N4CCCCN(C(=O)Nc5cccc(F)c5)C[C@H]34)cc2)cc1 [Compound 8, (8S,9S,10S)-N-(3-fluorophenyl)-10-(hydroxymethyl)-9-(4-((4-methoxyphenyl)ethynyl)phenyl)-1,6-diazabicyclo[6.2.0] decane-6-carboxamide]	0.083 µM	–
OC[C@H]1[C@@H](c2ccc(-c3ccc(F)cc3)cc2)[C@@H]2CN(CCC(F)(F)F)CCCCN12 [Compound 9, ((8R,9S,10R)-9-(4′-fluoro-[1,1′-biphenyl]-4-yl)-6-(3,3,3-trifluoropropyl)-1,6-diazabicyclo[6.2.0]decan-10-yl)methanol]	0.518 µM	–
O=C(Nc1ccccc1F)N1CCCCN2[C@@H](CO)[C@H](c3ccc(C#Cc4cccnc4)cc3)[C@@H]2C1 [Compound 10, (8R,9R,10R)-N-(2-fluorophenyl)-10-(hydroxymethyl)-9-(4-(pyridin-3-ylethynyl)phenyl)-1,6-diazabicyclo[6.2.0] decane-6-carboxamide]	0.949 µM	–
O=C(Nc1ccc(F)cc1)N1CCCCN2[C@H](CO)[C@H](c3ccc(C#Cc4ccccc4)cc3)[C@@H]2C1 [Compound 11, (8R,9R,10S)-N-(4-fluorophenyl)-10-(hydroxymethyl)-9-(4-(phenylethynyl)phenyl)-1,6-diazabicyclo[6.2.0] decane-6-carboxamide]	–	0.017 µM
O=C(Nc1ccccc1F)N1CCCCN2[C@@H](CO)[C@@H](c3ccc(C#Cc4cccnc4)cc3)[C@@H]2C1 [Compound 12]	0.95 µM	–
O=C(Nc1cccc(F)c1)N1CCCCN2[C@H](CO)[C@H](c3ccc(C#Cc4ccccc4)cc3)[C@@H]2C1 [Compound 13, (8R,9R,10S)-N-(3-fluorophenyl)-10-(hydroxymethyl)-9-(4-(phenylethynyl)phenyl)-1,6-diazabicyclo[6.2.0] decane-6-carboxamide]	0.044 µM	–
COc1ccccc1NC(=O)N1CCCCN2[C@H](CO)[C@H](c3ccc(C#CC4CC4)cc3)[C@H]2C1 [Compound 14, (8S,9R,10S)-9-(4-(cyclopropylethynyl)phenyl)-10-(hydroxymethyl)-N-(2-methoxyphenyl)-1,6-diazabicyclo[6.2.0] decane-6-carboxamide]	1.2 µM	–
COc1ccccc1C#Cc1ccc([C@@H]2[C@@H](CO)N3CCCCN(CCC(F)(F)F)C[C@H]23)cc1 [Compound 15, ((8S,9S,10S)-9-(4-((2-methoxyphenyl)ethynyl)phenyl)-6-(3,3,3-trifluoropropyl)-1,6-diazabicyclo[6.2.0]decan-10-yl)methanol]	0.254 µM	–
OC[C@H]1[C@@H](c2ccc(-c3cccc(F)c3)cc2)[C@@H]2CN(CCC(F)(F)F)CCCCN12 [Compound 16, ((8R,9S,10R)-9-(3′-fluoro-[1,1′-biphenyl]-4-yl)-6-(3,3,3-trifluoropropyl)-1,6-diazabicyclo[6.2.0]decan-10-yl)methanol]	0.618 µM	–
COc1cccc(CN2CCCCN3[C@H](CO)[C@@H](c4ccc(C#Cc5cccnc5)cc4)[C@H]3C2)c1 [Compound 17, ((8S,9S,10S)-6-(3-methoxybenzyl)-9-(4-(pyridin-3-ylethynyl)phenyl)-1,6-diazabicyclo[6.2.0]decan-10-yl)methanol]	0.56 µM	–
COc1ccc(C#Cc2ccc([C@@H]3[C@@H](CO)N4CCCCN(C(=O)Nc5ccccc5F)C[C@H]34)cc2)cc1 [Compound 18, (8S,9S,10S)-N-(2-fluorophenyl)-10-(hydroxymethyl)-9-(4-((4-methoxyphenyl)ethynyl)phenyl)-1,6-diazabicyclo[6.2.0] decane-6-carboxamide]	0.8 µM	–
CC(C)CC#Cc1ccc([C@@H]2[C@H](CO)N3CCCCN(S(=O)(=O)Cc4ccccc4)C[C@@H]23)cc1 [Compound 19, ((8R,9S,10R)-6-(benzylsulfonyl)-9-(4-(4-methylpent-1-yn-1-yl)phenyl)-1,6-diazabicyclo[6.2.0]decan-10-yl)methanol]	0.805 µM	–
COCC#Cc1ccc([C@@H]2[C@H](CO)N3CCCCN(S(=O)(=O)c4ccc(OC)cc4)C[C@@H]23)cc1 [Compound 20, ((8R,9S,10R)-6-((4-methoxyphenyl)sulfonyl)-9-(4-(3-methoxyprop-1-yn-1-yl)phenyl)-1,6-diazabicyclo[6.2.0]decan-10-yl)methanol]	1.33 µM	–
OC[C@@H]1[C@H](c2ccc(-c3ccccc3)cc2)[C@H]2CN(CCC(F)(F)F)CCCCN12 [Compound 21, ((8S,9R,10S)-9-([1,1′-biphenyl]-4-yl)-6-(3,3,3-trifluoropropyl)-1,6-diazabicyclo[6.2.0]decan-10-yl)methanol]	0.623 µM	–
O=C(Nc1ccccc1F)N1CCCCN2[C@H](CO)[C@H](c3ccc(C#Cc4cccnc4)cc3)[C@@H]2C1 [Compound 22, (8R,9R,10S)-N-(2-fluorophenyl)-10-(hydroxymethyl)-9-(4-(pyridin-3-ylethynyl)phenyl)-1,6-diazabicyclo[6.2.0] decane-6-carboxamide]	0.507 µM	–
COc1ccccc1NC(=O)N1CCCCN2[C@@H](CO)[C@H](c3ccc(C#CC4CCCC4)cc3)[C@@H]2C1 [Compound 23, (8R,9R,10R)-9-(4-(cyclopentylethynyl)phenyl)-10-(hydroxymethyl)-N-(2-methoxyphenyl)-1,6-diazabicyclo[6.2.0] decane-6-carboxamide]	0.386 µM	–
COc1ccc(NC(=O)N2CCCCN3[C@H](CO)[C@H](c4ccc(C#CCC(C)C)cc4)[C@@H]3C2)cc1 [Compound 24, (8R,9R,10S)-10-(hydroxymethyl)-N-(4-methoxyphenyl)-9-(4-(4-methylpent-1-yn-1-yl)phenyl)-1,6-diazabicyclo[6.2.0] decane-6-carboxamide]	0.418 µM	–
COc1ccc(NC(=O)N2CCCCN3[C@@H](CO)[C@H](c4ccc(C#Cc5ccccn5)cc4)[C@@H]3C2)cc1 [Compound 25, (8R,9R,10R)-10-(hydroxymethyl)-N-(4-methoxyphenyl)-9-(4-(pyridin-2-ylethynyl)phenyl)-1,6-diazabicyclo[6.2.0] decane-6-carboxamide]	0.155 µM	–
